The text below walks through data of patent publication US20240124460A1, “METHODS AND COMPOSITIONS FOR TARGETED PROTEIN DEGRADATION” (Ranok Therapeutics (Hangzhou) Co. Ltd., priority 2020, published 2024).

The subject of assay [1] is MV-4-11 human acute myeloid leukemia. As to the kind of experiment: MV-4-11 CCK-8 proliferation assay. It is filed as cell-based. The following applies: Homo sapiens, MV4-11; MV-4-11 cells, 72 hr. The protocol: (§1) The following cancer cell lines were employed: A549 human lung carcinoma (ATCC, #CCL-185); BT-474 human breast carcinoma (ATCC, #HTB-20); MDA-MB-231 human breast adenocarcinoma (ATCC, #CRM−HTB-26); MDA-MB-468 human breast adenocarcinoma (ATCC, #HTB-132); MV-4-11 human acute myeloid leukemia (ATCC, #CRL-9591); and U-87 MG human glioblastoma (ATCC, #HTB-14). Cell lines were cultured essentially according to ATCC recommendations.
(§2) 3-fold serial dilutions of each test compound were prepared ranging from 20 μM to 1.02 nM.
(§3) % Inhibition=100−(D−B)/(S−B)*100%. • S: Absorbance of cells treated with DMSO • D: Absorbance of compound-treated cells • B: Absorbance of medium with DMSO without cells

Assay [2] concerns U-87 MG human glioblastoma. As to the kind of experiment: U87 MG CCK-8 proliferation assay. The following applies: Homo sapiens, U-87 MG, 72 h, U-87 MG cells, read-out: U87MG CCK-8. It is filed as cell-based. The method, then:
as §1, §2, §3

In the case of `CCOc1cc(N2CCC(C(=O)NCCCOc3ccc(-c4ccc(NC(=O)c5ccc(OC)c(-c6cccc(OC)c6)c5)cc4)cc3)CC2)ccc1Nc1ncc2c(n1)N(S(C)(=O)=O)c1ccccc1C(=O)N2C` [Compound 148, N-(3-((4′-(3′,6-dimethoxy-[1,1′-biphenyl]-3-carboxamido)-[1,1′-biphenyl]-4-yl)oxy)propyl)-1-(3-ethoxy-4-((5-methyl-11-(methylsulfonyl)-6-oxo-6,11-dihydro-5H-benzo[e]pyrimido[5,4-b][1,4]diazepin-2-yl)amino)phenyl)piperidine-4-carboxamide], the EC50 in assay [1] and in assay [2] was greater than 1000 nM throughout.
As for `CCOc1cc(N2CCC(C(=O)N3CCC(CN4CCN(Cc5ccc(-n6c(C(=O)NC(C)C(F)(F)F)nnc6-c6cc(CC)c(OC(=O)C(C)C)cc6O)cc5)CC4)CC3)CC2)ccc1Nc1ncc2c(n1)N(S(C)(=O)=O)c1ccccc1C(=O)N2C` (centres unmarked) [Compound 161, 4-(4-(4-((4-((1-(1-(3-ethoxy-4-((5-methyl-11-(methylsulfonyl)-6-oxo-6,11-dihydro-5H-benzo[e]pyrimido[5,4-b][1,4]diazepin-2-yl)amino)phenyl)piperidine-4-carbonyl)piperidin-4-yl)methyl)piperazin-1-yl)methyl)phenyl)-5-((1,1,1-trifluoropropan-2-yl)carbamoyl)-4H-1,2,4-triazol-3-yl)-2-ethyl-5-hydroxyphenyl isobutyrate], the EC50 in assay [1] was less than 100 nM; in assay [2] it was 100 to 1000 nM.
The corresponding values for `CCOc1cc(N2CCC(C(=O)N3CCN(Cc4ccc(-n5c(O)nnc5-c5cc(C(C)C)c(O)cc5O)cc4)CC3)CC2)ccc1N(CC)c1ncc2c(n1)N(S(C)(=O)=O)c1ccccc1C(=O)N2C` [Compound 160, 2-((4-(4-(4-(4-(3-(2,4-dihydroxy-5-isopropylphenyl)-5-hydroxy-4H-1,2,4-triazol-4-yl)benzyl)piperazine-1-carbonyl)piperidin-1-yl)-2-ethoxyphenyl)(ethyl)amino)-5-methyl-11-(methylsulfonyl)-5,11-dihydro-6H-benzo[e]pyrimido[5,4-b][1,4]diazepin-6-one] are less than 100 nM and 100 to 1000 nM.
As to `CCNC(=O)c1nnc(-c2cc(CC)c(O)cc2OC)n1-c1ccc(CN2CCN(CC3CCN(C(=O)C4CCN(c5ccc(Nc6ncc7c(n6)N(S(C)(=O)=O)c6ccccc6C(=O)N7C)c(OCC)c5)CC4)CC3)CC2)cc1` [Compound 171, 4-(4-((4-((1-(1-(3-ethoxy-4-((5-methyl-11-(methylsulfonyl)-6-oxo-6,11-dihydro-5H-benzo[e]pyrimido[5,4-b][1,4]diazepin-2-yl)amino)phenyl)piperidine-4-carbonyl)piperidin-4-yl)methyl)piperazin-1-yl)methyl)phenyl)-N-ethyl-5-(5-ethyl-4-hydroxy-2-methoxyphenyl)-4H-1,2,4-triazole-3-carboxamide], the EC50 in assay [1] and in assay [2] was greater than 1000 nM in each case.
For `CCOc1cc(N2CCC(C(=O)N3CCN(Cc4ccc(-n5c(C(=O)NCCN6CCN(S(C)(=O)=O)CC6)nnc5-c5cc(C(C)C)c(O)cc5O)cc4)CC3)CC2)ccc1Nc1ncc2c(n1)N(C)c1ccccc1C(=O)N2C` [Compound 172, 5-(2,4-dihydroxy-5-isopropylphenyl)-4-(4-((4-(1-(4-((5,11-dimethyl-6-oxo-6,11-dihydro-5H-benzo[e]pyrimido[5,4-b][1,4]diazepin-2-yl)amino)-3-ethoxyphenyl)piperidine-4-carbonyl)piperazin-1-yl)methyl)phenyl)-N-(2-(4-(methylsulfonyl)piperazin-1-yl)ethyl)-4H-1,2,4-triazole-3-carboxamide], the EC50 in assay [1] and in assay [2] was less than 100 nM in each case.
`CCOc1cc(N2CCC(CN3CC4(CCN(Cc5ccc(-n6c(O)nnc6-c6cc(C(C)C)c(O)cc6O)cc5)CC4)C3)CC2)ccc1Nc1ncc2c(n1)N(S(C)(=O)=O)c1ccccc1C(=O)N2C` [Compound 183, 2-((4-(4-((7-(4-(3-(2,4-dihydroxy-5-isopropylphenyl)-5-hydroxy-4H-1,2,4-triazol-4-yl)benzyl)-2,7-diazaspiro[3.5]nonan-2-yl)methyl)piperidin-1-yl)-2-ethoxyphenyl)amino)-5-methyl-11-(methylsulfonyl)-5,11-dihydro-6H-benzo[e]pyrimido[5,4-b][1,4]diazepin-6-one]: the EC50 in assay [1] is less than 100 nM; in assay [2], 100 to 1000 nM.
The corresponding values for `CCOc1cc(N2CCC(C(=O)NCc3ccc(CN(CC)Cc4ccc(-n5c(O)nnc5-c5cc(C(C)C)c(O)cc5O)cc4)cc3)CC2)ccc1Nc1ncc2c(n1)N(S(C)(=O)=O)c1ccccc1C(=O)N2C` [Compound 166, N-(4-(((4-(3-(2,4-dihydroxy-5-isopropylphenyl)-5-hydroxy-4H-1,2,4-triazol-4-yl)benzyl)(ethyl)amino)methyl)benzyl)-1-(3-ethoxy-4-((5-methyl-11-(methylsulfonyl)-6-oxo-6,11-dihydro-5H-benzo[e]pyrimido[5,4-b][1,4]diazepin-2-yl)amino)phenyl)piperidine-4-carboxamide] are less than 100 nM and 100 to 1000 nM.
For the compound `CCOc1cc(N2CCC(C(=O)NCc3ccc(CN(CC)Cc4ccc(-n5c(O)nnc5-c5cc(C(C)C)c(O)cc5O)cc4)cc3)CC2)ccc1Nc1ncc2c(n1)N(C)c1ccccc1C(=O)N2C` [Compound 165, N-(4-(((4-(3-(2,4-dihydroxy-5-isopropylphenyl)-5-hydroxy-4H-1,2,4-triazol-4-yl)benzyl)(ethyl)amino)methyl)benzyl)-1-(4-((5,11-dimethyl-6-oxo-6,11-dihydro-5H-benzo[e]pyrimido[5,4-b][1,4]diazepin-2-yl)amino)-3-ethoxyphenyl)piperidine-4-carboxamide], the results for the EC50 in assay [1] and in assay [2] were less than 100 nM and 100 to 1000 nM, respectively.
For the compound `CCOc1cc(N2CCC(C(=O)N3CCN(Cc4ccc(-n5c(C(=O)NCCN(CC)CC)nnc5-c5cc(C(C)C)c(O)cc5O)cc4)CC3)CC2)ccc1Nc1ncc2c(n1)N(C)c1ccccc1C(=O)N2C` [Compound 163, N-(2-(diethylamino)ethyl)-5-(2,4-dihydroxy-5-isopropylphenyl)-4-(4-((4-(1-(4-((5,11-dimethyl-6-oxo-6,11-dihydro-5H-benzo[e]pyrimido[5,4-b][1,4]diazepin-2-yl)amino)-3-ethoxyphenyl)piperidine-4-carbonyl)piperazin-1-yl)methyl)phenyl)-4H-1,2,4-triazole-3-carboxamide], the EC50 in assay [1] and in assay [2] was less than 100 nM throughout.
Take `CCOc1cc(N2CCC(C(=O)N3CCN(Cc4ccc(-n5c(C(=O)NCCN6CCN(S(C)(=O)=O)CC6)nnc5-c5cc(C(C)C)c(O)cc5O)cc4)CC3)CC2)ccc1Nc1ncc2c(n1)N(S(C)(=O)=O)c1ccccc1C(=O)N2C` [Compound 174, 5-(2,4-dihydroxy-5-isopropylphenyl)-4-(4-((4-(1-(3-ethoxy-4-((5-methyl-11-(methylsulfonyl)-6-oxo-6,11-dihydro-5H-benzo[e]pyrimido[5,4-b][1,4]diazepin-2-yl)amino)phenyl)piperidine-4-carbonyl)piperazin-1-yl)methyl)phenyl)-N-(2-(4-(methylsulfonyl)piperazin-1-yl)ethyl)-4H-1,2,4-triazole-3-carboxamide]: the EC50 in assay [1] and in assay [2] was less than 100 nM throughout.
For the compound `CCOc1cc(N2CCC(C(=O)N3CCN(Cc4ccc(-n5c(C(=O)NCCN(CC)CC)nnc5-c5cc(C(C)C)c(O)cc5O)cc4)CC3)CC2)ccc1Nc1ncc2c(n1)N(S(C)(=O)=O)c1ccccc1C(=O)N2C` [Compound 164, N-(2-(diethylamino)ethyl)-5-(2,4-dihydroxy-5-isopropylphenyl)-4-(4-((4-(1-(3-ethoxy-4-((5-methyl-11-(methylsulfonyl)-6-oxo-6,11-dihydro-5H-benzo[e]pyrimido[5,4-b][1,4]diazepin-2-yl)amino)phenyl)piperidine-4-carbonyl)piperazin-1-yl)methyl)phenyl)-4H-1,2,4-triazole-3-carboxamide], the EC50 in assay [1] and in assay [2] was less than 100 nM in each case.
Regarding `CCOc1cc(N2CCN(Cc3ccc(-n4c(O)nnc4-c4cc(C(C)C)c(O)cc4O)cc3)CC2)ccc1Nc1ncc2c(n1)N(C1CCCC1)c1ccccc1C(=O)N2C` [Compound 188, 11-cyclopentyl-2-((4-(4-(4-(3-(2,4-dihydroxy-5-isopropylphenyl)-5-hydroxy-4H-1,2,4-triazol-4-yl)benzyl)piperazin-1-yl)-2-ethoxyphenyl)amino)-5-methyl-5,11-dihydro-6H-benzo[e]pyrimido[5,4-b][1,4]diazepin-6-one], the results for the EC50 in assay [1] and in assay [2] were 100 to 1000 nM and greater than 1000 nM, respectively.
In the case of `CCOc1cc(N2CCC(C(=O)NCc3ccc(CN(C)Cc4ccc(-n5c(O)nnc5-c5cc(C(C)C)c(O)cc5O)cc4)cc3)CC2)ccc1Nc1ncc2c(n1)N(S(C)(=O)=O)c1ccccc1C(=O)N2C` [Compound 170, N-(4-(((4-(3-(2,4-dihydroxy-5-isopropylphenyl)-5-hydroxy-4H-1,2,4-triazol-4-yl)benzyl)(methyl)amino)methyl)benzyl)-1-(3-ethoxy-4-((5-methyl-11-(methylsulfonyl)-6-oxo-6,11-dihydro-5H-benzo[e]pyrimido[5,4-b][1,4]diazepin-2-yl)amino)phenyl)piperidine-4-carboxamide], the EC50 in assay [1] and in assay [2] was less than 100 nM throughout.
